Measured values as given in BindingDB's records for doi:10.7270/Q2K072QS (Burnham Center For Chemical Genomics, 2010).

molecular target: G-protein coupled receptor 35 (Homo sapiens, UniProt Q9HC97); test: blockers of orphan receptor GPR35 – imaging, high-content imaging, selectivity assay for GPR55 agonist project, SAR follow-up (AID 2338); conditions: not given
Sequence (Q9HC97 whole entry): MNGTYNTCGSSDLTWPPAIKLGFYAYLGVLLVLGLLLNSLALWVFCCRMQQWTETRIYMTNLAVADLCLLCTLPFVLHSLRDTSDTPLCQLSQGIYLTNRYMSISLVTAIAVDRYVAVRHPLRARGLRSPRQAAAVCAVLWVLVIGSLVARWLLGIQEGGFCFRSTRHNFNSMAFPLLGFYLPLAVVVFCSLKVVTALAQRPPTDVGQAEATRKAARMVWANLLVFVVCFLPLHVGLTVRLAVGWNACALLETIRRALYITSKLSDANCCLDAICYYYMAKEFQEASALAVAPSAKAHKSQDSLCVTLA

Row | SMILES | IC50 [µM]
1 | COc1ccc2c(c1)cc(C)c1nnc(SCC(=O)N(C)c3nc(-c4ccccc4)cs3)n12 [MLS-0102574.0001] | > 32
2 | CC(C)Oc1ccc(S(=O)(=O)N2CCOCC2)cc1NC(=O)c1ccc(N2CCCC2=O)cc1 [N-(5-morpholin-4-ylsulfonyl-2-propan-2-yloxy-phenyl)-4-(2-oxidanylidenepyrrolidin-1-yl)benzamide] | > 32
3 | COc1ccc(S(=O)(=O)N2CCOCC2)cc1NC(=O)c1cc2c(s1)CCCC2 [N-[2-methoxy-5-(4-morpholinylsulfonyl)phenyl]-4,5,6,7-tetrahydro-1-benzothiophene-2-carboxamide] | > 32
4 | COc1ccc2cc(C)c3nnc(SCC(=O)Nc4nc(-c5ccc(F)cc5)cs4)n3c2c1 [N-[4-(4-fluorophenyl)-1,3-thiazol-2-yl]-2-[(8-methoxy-4-methyl-[1,2,4]triazolo[4,3-a]quinolin-1-yl)sulfanyl]ethanamide] | > 32
5 | COc1ccc(-c2csc(NC(=O)CSc3nnc4c(C)cc5ccccc5n34)n2)cc1 [N-[4-(4-methoxyphenyl)-1,3-thiazol-2-yl]-2-[(4-methyl-[1,2,4]triazolo[4,3-a]quinolin-1-yl)sulfanyl]ethanamide] | > 32
6 | O=C(CSc1nc2ccccc2s1)N1c2ccccc2Sc2ccc(Cl)cc21 [SMR000198068] | > 32
7 | CC(C)NS(=O)(=O)c1ccc(NC(=S)NC(=O)c2ccc(-c3ccccc3)cc2)cc1 [SMR000200853] | > 32
8 | CC(Sc1nc2cc(Cl)ccc2s1)C(=O)Nc1cccc(S(=O)(=O)N2CCOCC2)c1 (stereo unspecified) [SMR000243093] | > 32
9 | CN(C)S(=O)(=O)c1ccc(N2CCCC2)c(C(=O)N2CCN(c3ccc([N+](=O)[O-])cc3)CC2)c1 [SMR000370611] | > 32

Other lines, results leading:

Row | IC50 [µM] | SMILES
10 | > 32 | C=CCN(CC=C)S(=O)(=O)c1ccc(NC(=S)NC(=O)c2ccc(-c3ccccc3)cc2)cc1
11 | > 32 | COc1ccccc1C=CC(=O)NC(=S)Nc1ccc(S(=O)(=O)N(C)c2ccccc2)cc1
12 | > 32 | O=C(CSc1nc2ccccc2s1)N1c2ccccc2Sc2ccc(C(F)(F)F)cc21
13 | > 32 | Cc1cccc(N2CCN(C(=O)c3cc(S(=O)(=O)N(C)C)ccc3N3CCCC3)CC2)c1C
14 | > 32 | CCCN(CCC)Cc1c(C(=O)NN=Cc2c[nH]c3ccccc23)nnn1-c1nonc1N
15 | > 32 | C/C(C=NNC(=O)c1nnn(-c2nonc2N)c1CN1CCC(C)CC1)=C/c1ccccc1
16 | > 32 | CCCN(CCC)Cc1c(C(=O)NN=C/C(C)=C\c2ccccc2)nnn1-c1nonc1N [1-(4-azanyl-1,2,5-oxadiazol-3-yl)-5-[(dipropylamino)methyl]-N-[[(Z)-2-methyl-3-phenyl-prop-2-enylidene]amino]-1,2,3-triazole-4-carboxamide]
17 | > 32 | COc1cc2c(cc1NC(=O)C(C)Sc1ccc(NC(C)=O)cc1)oc1ccccc12 (stereo unspecified) [2-[(4-acetamidophenyl)thio]-N-(2-methoxy-3-dibenzofuranyl)propanamide]
18 | > 32 | Cc1occc1C(=O)Nc1ccc(OCc2ccccc2)cc1 [2-methyl-N-(4-phenylmethoxyphenyl)furan-3-carboxamide]
19 | > 32 | CC(C)=CC(=O)Nc1ccc(OCc2ccccc2)cc1 [3-methyl-N-(4-phenylmethoxyphenyl)but-2-enamide]
20 | > 32 | COc1cc2c(cc1NC(=O)CSc1ccccc1)oc1ccccc12 [MLS000579482]

same assay, conditions: inactive by the depositor's call

Row | IC50 [µM] | SMILES
21 | 24.4 | CCCN(CCC)Cc1c(C(=O)NN=C/C(C)=C\c2ccco2)nnn1-c1nonc1N [1-(4-azanyl-1,2,5-oxadiazol-3-yl)-5-[(dipropylamino)methyl]-N-[[(Z)-3-(furan-2-yl)-2-methyl-prop-2-enylidene]amino]-1,2,3-triazole-4-carboxamide]
